Assay results taken from ChEMBL document CHEMBL3399941, “Discovery of heterocyclic sulfonamides as sphingosine 1-phosphate receptor 1 (S1P1) antagonists” (Bioorg Med Chem Lett, 2015).
In brackets after ≈: the same amount, converted by molar mass.

Legend:
[1] = molecular target: Sphingosine 1-phosphate receptor 1 (Homo sapiens, UniProt P21453); test: Antagonist activity against S1P1R in human U2OS cells expressing beta-arrestin/green fluorescent protein assessed as effect on S1P-induced beta-arrestin GFP relocalization incubated for 30 mins by Hoechst 33342 staining based receptor translocation assay; assay type: cell-based
[2] = Solubility in pH 7.4 buffer; assay type: physicochemical
Liver microsome = test: (§1) Intrinsic clearance in human liver microsomes; assay type: ADME; conditions: microsomes
[3] = Lipophilicity, log D of the compound; assay type: physicochemical; conditions: octanol/water
[4] = Protein binding in human plasma assessed as unbound fraction; assay type: ADME, cell-free
[5] = Protein binding in rat plasma assessed as unbound fraction; assay type: ADME, cell-free
[6] = Intrinsic clearance in rat hepatocytes assessed per 10^6 cells; assay type: ADME, cell-based, Hepatocyte; conditions: read-out: CLH
[7] = Apparent permeability from apical to basolateral side in human Caco2 cells; assay type: ADME, cell-based; conditions: Caco-2
[8] = Apparent permeability from basolateral to apical side in human Caco2 cells; assay type: ADME, cell-based; conditions: Caco-2
[9] = Volume of distribution at steady state in rat at 1 mg/kg, iv; assay type: ADME, organism-based; design: dose 1 mg/kg, route intravenous; conditions: in vivo, read-out: Vdss
[10] = Half life in rat at 1 mg/kg, iv; assay type: ADME, organism-based; design: dose 1 mg/kg, route intravenous; conditions: in vivo
Rattus norvegicus [11] = test: AUC in rat at 3 mg/kg, po; assay type: ADME, organism-based, Plasma; design: dose 3 mg/kg, route oral; conditions: in vivo
[12] = Cmax in rat at 3 mg/kg, po; assay type: ADME, organism-based; design: dose 3 mg/kg, route oral; conditions: in vivo
Rattus norvegicus [13] = test: Oral bioavailability in rat at 3 mg/kg; assay type: ADME, organism-based; conditions: in vivo
[14] = as §1; assay type: ADME; conditions: liver microsomes, read-out: CLH
[15] = Intrinsic clearance in human hepatocytes assessed per 10^6 cells; assay type: ADME, cell-based, Hepatocyte; conditions: read-out: CLH

Sphingosine 1-phosphate receptor 1, sequence (P21453 whole entry): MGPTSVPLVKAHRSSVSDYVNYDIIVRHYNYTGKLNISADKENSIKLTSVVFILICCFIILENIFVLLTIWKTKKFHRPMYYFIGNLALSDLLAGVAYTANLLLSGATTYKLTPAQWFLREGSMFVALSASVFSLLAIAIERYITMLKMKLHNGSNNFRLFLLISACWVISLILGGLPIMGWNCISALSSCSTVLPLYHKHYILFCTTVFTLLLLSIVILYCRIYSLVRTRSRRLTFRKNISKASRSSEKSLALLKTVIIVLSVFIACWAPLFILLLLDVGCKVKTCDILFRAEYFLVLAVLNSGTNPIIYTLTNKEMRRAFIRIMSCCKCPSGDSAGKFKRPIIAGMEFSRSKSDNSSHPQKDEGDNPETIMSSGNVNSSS

EC50 [1] [nM] | Structure (SMILES) | other results
250 | CCc1nnc([C@@H](C)NS(=O)(=O)c2ccc(Cl)cc2)n1CC | solubility [2]: > 600 µM; microsomal CLint (Liver microsome): 5.5 µL/min/mg; logD [3]: 1.4; fraction unbound [4]: 0.34; fraction unbound [5]: 0.5; hepatocyte CLint [6]: 10.2 µL/min/1e6 cells; Papp A→B [7]: 11.1 ×10⁻⁶ cm/s; Papp B→A [8]: 22.5 ×10⁻⁶ cm/s; Vd [9]: 0.7 L/kg; half-life [10]: 84 min; AUC (Rattus norvegicus [11]): 2.7 µM·h; Cmax [12]: 1600 nM; F (Rattus norvegicus [13]): 11%
> 33000 | CCc1nnc([C@H](C)NS(=O)(=O)c2ccc(Cl)cc2)n1CC | 
1030 | C=CCSc1nnc(C(Cc2ccccc2)NS(=O)(=O)c2ccc(Cl)cc2)n1C (racemic) | 
22100 | Cn1cnnc1C(Cc1ccccc1)NS(=O)(=O)c1ccc(Cl)cc1 (racemic) | 
1830 | Cc1nnc(C(Cc2ccccc2)NS(=O)(=O)c2ccc(Cl)cc2)n1C (racemic) | 
340 | CCc1nnc(C(Cc2ccccc2)NS(=O)(=O)c2ccc(Cl)cc2)n1C (racemic) | 
3230 | CCCCc1nnc(C(Cc2ccccc2)NS(=O)(=O)c2ccc(Cl)cc2)n1C (racemic) | 
3170 | Cn1c(C(Cc2ccccc2)NS(=O)(=O)c2ccc(Cl)cc2)nnc1C(F)(F)F (racemic) | 
460 | CCn1c(C)nnc1C(Cc1ccccc1)NS(=O)(=O)c1ccc(Cl)cc1 (racemic) | 
2690 | CCCn1c(C)nnc1C(Cc1ccccc1)NS(=O)(=O)c1ccc(Cl)cc1 (racemic) | 
6340 | Cc1nnc(C(Cc2ccccc2)NS(=O)(=O)c2ccc(Cl)cc2)n1C(C)C (racemic) | 
> 100000 | Cc1nnc(C(Cc2ccccc2)NS(=O)(=O)c2ccc(Cl)cc2)n1Cc1ccccc1 (racemic) | 
220 | CCc1nnc(C(Cc2ccccc2)NS(=O)(=O)c2ccc(Cl)cc2)n1CC (racemic) | 
490 | CCn1c(C)nnc1C(Cc1ccc(F)cc1)NS(=O)(=O)c1ccc(Cl)cc1 (racemic) | 
2370 | CCn1c(C)nnc1C(Cc1cccnc1)NS(=O)(=O)c1ccc(Cl)cc1 (racemic) | 
2250 | C=CCC(NS(=O)(=O)c1ccc(Cl)cc1)c1nnc(C)n1CC (racemic) | 
6190 | CCCC(NS(=O)(=O)c1ccc(Cl)cc1)c1nnc(C)n1CC (racemic) | 
7690 | CCn1c(C)nnc1C(CC1CC1)NS(=O)(=O)c1ccc(Cl)cc1 (racemic) | 
670 | CCn1c(C)nnc1C(C)NS(=O)(=O)c1ccc(Cl)cc1 (racemic) | solubility [2]: 380 µM (≈ 125 µg/mL); microsomal CLint [14]: < 5 µL/min/mg; hepatocyte CLint [15]: < 2 µL/min/1e6 cells
15200 | CCc1nnc(C(Cc2ccccc2)NS(=O)(=O)c2ccc(Cl)cc2)o1 (racemic) | microsomal CLint [14]: > 100 µL/min/mg
> 100000 | Cc1ncc(C(Cc2ccccc2)NS(=O)(=O)c2ccc(Cl)cc2)n1C (racemic) | microsomal CLint [14]: > 100 µL/min/mg
1610 | Cc1cnc(C(Cc2ccccc2)NS(=O)(=O)c2ccc(Cl)cc2)n1C (racemic) | microsomal CLint [14]: > 100 µL/min/mg
3030 | CCc1onc(C(C)NS(=O)(=O)c2ccc(Cl)cc2)c1CC (racemic) | microsomal CLint [14]: > 100 µL/min/mg
720 | CCc1snc(C(C)NS(=O)(=O)c2ccc(Cl)cc2)c1CC (racemic) | microsomal CLint [14]: > 100 µL/min/mg
310 | CCc1[nH]nc(C(C)NS(=O)(=O)c2ccc(Cl)cc2)c1CC (racemic) | microsomal CLint [14]: > 100 µL/min/mg
410 | CCc1nnc(C(C)NS(=O)(=O)c2ccc(Cl)cc2)n1CC (racemic) | 
